Values joined by “and” are separate entries in the source; they are usually repeats but may differ in a detail not shown here. Equal entries are not always repeated. Where two headings read alike, the source gives them in different places. Blank lines part the entries; values can stand above or below the compound they belong to.
Legend:
[1] = rcm bond, toluene
[2] = target: Recombinant human CD33 protein (Homo sapiens (Human), UniProt P20138); assay: CD33 competitive binding assay for HTS drug screen (fluorescent multivalent sialic acid probe)
Outline: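 Recombinant human CD33, coated overnight at 4° C from 10 μg/ml in pH 5.5 acetate, was preincubated briefly with compound. It was then exposed to a multivalent neutravidin/FITC/sialic acid analog A-375 probe (final 5 μM neutravidin, 15 μM A-375, 5 μM FITC) for 30 min at room temperature. After washing, bound FITC fluorescence was read.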

[3] = target: recombinant human CD33 (Siglec-3, sialic acid binding Ig-like lectin 3) protein (Homo sapiens (Human), UniProt P20138); assay: Differential Scanning Fluorimetry (DSF, Protein Thermal Shift Assay); conditions: 50 μM of A-001; CD33 alone melts at approximately 55° C.
Protocol: FIG. 1 depicts thermograms (A) and derivative curves (B) of His-CD33 (gray) and His-CD33 with A-001 (blue).
Differential Scanning Fluorimetry (also known as DSF, Protein Thermal Shift Assay, Thermofluor Assay) was used to measure and compare the thermal melt or thermal denaturation temperature of recombinant human CD33 (Siglec-3, sialic acid binding Ig-like lectin 3) protein in the presence of 50 μM of A-001. In the absence of any compound, the CD33 protein has a thermal melt at approximately 55° C. under the method conditions described in this report.

[4] = target: Recombinant Human Siglec-3/CD33 protein (His-CD33) (Homo sapiens (Human), UniProt P20138); assay: Differential scanning fluorimetry (DSF) thermal shift assay; type: binding
Recombinant Human Siglec-3/CD33 protein (His-CD33), sequence (P20138 18-259): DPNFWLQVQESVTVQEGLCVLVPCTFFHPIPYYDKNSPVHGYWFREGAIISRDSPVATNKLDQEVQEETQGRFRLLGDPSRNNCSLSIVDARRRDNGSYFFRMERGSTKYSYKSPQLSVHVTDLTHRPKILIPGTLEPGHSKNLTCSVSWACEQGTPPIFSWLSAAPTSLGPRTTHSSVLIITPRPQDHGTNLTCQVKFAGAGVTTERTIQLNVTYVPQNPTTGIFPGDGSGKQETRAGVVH

recombinant human CD33 (Siglec-3, sialic acid binding Ig-like lectin 3) protein, sequence (P20138 18-259): as above
Recombinant human CD33 protein, sequence (P20138 18-259): as above

SMILES: CC(=O)O[C@H]1[C@@H]2O[C@](C(=O)OCc3ccccc3)(CC=CCCCCC(=O)NCCCOc3c(C)cc(cc3C)C(=O)NC[C@H]1OC(C)=O)C[C@H](OC(C)=O)[C@H]2NC(=O)OC(C)(C)C
ring closure, isolated yield ([1]; from C=CCCCCC(=O)NCCCOc1c(C)cc(C(=O)NC[C@@H](OC(C)=O)[C@@H](OC(C)=O)[C@@H]2O[C@@](CC=C)(C(=O)OCc3ccccc3)C[C@H](OC(C)=O)[C@H]2NC(=O)OC(C)(C)C)cc1C, 25-membered ring, Hoveyda-Grubbs II, 2.15 mM, 90.0 °C, 0.58 h): 41%

SMILES: CC(=O)O[C@H]1[C@@H]2O[C@](C(=O)OCc3ccccc3)(CC=CCOC[C@@H](C)C(=O)NCCCOc3c(C)cc(cc3C)C(=O)NC[C@H]1OC(C)=O)C[C@H](OC(C)=O)[C@H]2NC(=O)OC(C)(C)C
ring closure, isolated yield ([1]; from C=CCOC[C@@H](C)C(=O)NCCCOc1c(C)cc(C(=O)NC[C@@H](OC(C)=O)[C@@H](OC(C)=O)[C@@H]2O[C@@](CC=C)(C(=O)OCc3ccccc3)C[C@H](OC(C)=O)[C@H]2NC(=O)OC(C)(C)C)cc1C, 25-membered ring, Hoveyda-Grubbs II (10 mol%)/1,4-benzoquinone, 1.52 mM, 80.0 °C, 1.0 h): 47%

SMILES: COC(=O)[C@]12CC=CCCC[C@@H](NC(=O)C3CCCOC3)c3cccc(c3)COc3c(C)cc(cc3C)C(=O)NC[C@@H](OC(C)=O)[C@@H](OC(C)=O)[C@H](O1)[C@H](NC(=O)OC(C)(C)C)[C@@H](OC(C)=O)C2 (stereo partly shown)
ring closure, isolated yield ([1]; from C=CCCC[C@@H](NC(=O)C1CCCOC1)c1cccc(COc2c(C)cc(C(=O)NC[C@@H](OC(C)=O)[C@@H](OC(C)=O)[C@@H]3O[C@@](CC=C)(C(=O)OC)C[C@H](OC(C)=O)[C@H]3NC(=O)OC(C)(C)C)cc2C)c1, 24-membered ring, Hoveyda-Grubbs II/quinone, 1.03 mM, 90.0 °C, 24.0 h): 71%

SMILES: COC(=O)[C@]12CC=CCOC[C@@H](NC(=O)C3CCCOC3)COCCCOc3c(C)cc(cc3C)C(=O)NC[C@@H](OC(C)=O)[C@@H](OC(C)=O)[C@H](O1)[C@H](NC(=O)OC(C)(C)C)[C@@H](OC(C)=O)C2 (stereo partly shown)
ring closure, isolated yield ([1]; from C=CCOC[C@H](COCCCOc1c(C)cc(C(=O)NC[C@@H](OC(C)=O)[C@@H](OC(C)=O)[C@@H]2O[C@@](CC=C)(C(=O)OC)C[C@H](OC(C)=O)[C@H]2NC(=O)OC(C)(C)C)cc1C)NC(=O)C1CCCOC1, 25-membered ring, Hoveyda-Grubbs II/quinone, 1.04 mM, 90.0 °C, 24.0 h): 76%

SMILES: COC(=O)[C@]12CC=CCOC[C@@H](NC(=O)C3CCCOC3)COCCOc3c(C)cc(cc3C)C(=O)NC[C@@H](OC(C)=O)[C@@H](OC(C)=O)[C@H](O1)[C@H](NC(=O)OC(C)(C)C)[C@@H](OC(C)=O)C2 (stereo partly shown)
ring closure, isolated yield ([1]; from C=CCOC[C@H](COCCOc1c(C)cc(C(=O)NC[C@@H](OC(C)=O)[C@@H](OC(C)=O)[C@@H]2O[C@@](CC=C)(C(=O)OC)C[C@H](OC(C)=O)[C@H]2NC(=O)OC(C)(C)C)cc1C)NC(=O)C1CCCOC1, 24-membered ring, Hoveyda-Grubbs II/quinone, 1.05 mM, 80.0 °C, 3.0 h): 60%

SMILES: COC(=O)[C@]12CC=CCOC[C@@H](NC(=O)OC(C)(C)C)COCCCOc3c(C)cc(cc3C)C(=O)NC[C@@H](OC(C)=O)[C@@H](OC(C)=O)[C@H](O1)[C@H](NC(C)=O)[C@@H](OC(C)=O)C2
ring closure, isolated yield ([1]; from C=CCOC[C@H](COCCCOc1c(C)cc(C(=O)NC[C@@H](OC(C)=O)[C@@H](OC(C)=O)[C@@H]2O[C@@](CC=C)(C(=O)OC)C[C@H](OC(C)=O)[C@H]2NC(C)=O)cc1C)NC(=O)OC(C)(C)C, 25-membered ring, Hoveyda-Grubbs II/quinone, 1.12 mM, 100.0 °C, 3.0 h): 84%

SMILES: COC(=O)[C@]12CC=CCOC[C@H]3C[C@H](CN3C(=O)C3CCCOC3)OCCOc3c(C)cc(cc3C)C(=O)NC[C@@H](OC(C)=O)[C@@H](OC(C)=O)[C@H](O1)[C@H](NC(=O)OC(C)(C)C)[C@@H](OC(C)=O)C2 (stereo partly shown)
ring closure, isolated yield ([1]; from C=CCOC[C@H]1C[C@@H](OCCOc2c(C)cc(C(=O)NC[C@@H](OC(C)=O)[C@@H](OC(C)=O)[C@@H]3O[C@@](CC=C)(C(=O)OC)C[C@H](OC(C)=O)[C@H]3NC(=O)OC(C)(C)C)cc2C)CN1C(=O)C1CCCOC1, 25-membered ring, Hoveyda-Grubbs II/quinone, 1.03 mM, 90.0 °C, 24.0 h): 64%

SMILES: COC(=O)[C@]12CC=Cc3cccc(c3)[C@@H](NC(=O)C3CCCOC3)CCCCOc3c(C)cc(cc3C)C(=O)NC[C@@H](OC(C)=O)[C@@H](OC(C)=O)[C@H](O1)[C@H](NC(=O)OC(C)(C)C)[C@@H](OC(C)=O)C2 (stereo partly shown)
ring closure, isolated yield ([1]; from C=CC[C@]1(C(=O)OC)C[C@H](OC(C)=O)[C@@H](NC(=O)OC(C)(C)C)[C@H]([C@H](OC(C)=O)[C@@H](CNC(=O)c2cc(C)c(OCCCC[C@H](NC(=O)C3CCCOC3)c3cccc(C=C)c3)c(C)c2)OC(C)=O)O1, 24-membered ring, Hoveyda-Grubbs II/quinone, 1.02 mM, 80.0 °C, 1.0 h): 29%

SMILES: COC(=O)[C@]12CC=Cc3cccc(c3)[C@@H](NC(=O)C3CCCOC3)CCCCc3cc(cc(Cl)c3OC(C)=O)C(=O)NC[C@@H](OC(C)=O)[C@@H](OC(C)=O)[C@H](O1)[C@H](NC(=O)OC(C)(C)C)[C@@H](OC(C)=O)C2 (stereo partly shown)
ring closure, isolated yield ([1]; from C=CC[C@]1(C(=O)OC)C[C@H](OC(C)=O)[C@@H](NC(=O)OC(C)(C)C)[C@H]([C@H](OC(C)=O)[C@@H](CNC(=O)c2cc(Cl)c(OC(C)=O)c(CCCC[C@H](NC(=O)C3CCCOC3)c3cccc(C=C)c3)c2)OC(C)=O)O1, 22-membered ring, Hoveyda-Grubbs II/quinone, 1.3 mM, 88.0 °C, 0.5 h): 57% | ring closure, isolated yield ([1]; from C=CC[C@]1(C(=O)OC)C[C@H](OC(C)=O)[C@@H](NC(=O)OC(C)(C)C)[C@H]([C@H](OC(C)=O)[C@@H](CNC(=O)c2cc(Cl)c(OC(C)=O)c(CCCC[C@H](NC(=O)C3CCCOC3)c3cccc(C=C)c3)c2)OC(C)=O)O1, Hoveyda-Grubbs II/quinone, 1.3 mM, 88.0 °C, 0.5 h): 16%

EC50 [2]: 15 nM | increase in thermal melt (dTm D) of CD33 protein [3]: 12.2±0.7 °C | ΔTm D (° C.) ([4]; 50 μM compound, 0.5 μM CD33 protein, pH 7.4, individual determinations): 11.9 °C and 12.9 °C | ΔTm at 50 µM ([4]; 50 μM compound, 0.5 μM CD33 protein, pH 7.4, individual determinations, read-out: ΔTm D (° C.)): 12.2 °C | ΔTm at 50 µM ([4]; 50 μM compound, 0.5 μM CD33 protein, pH 7.4, read-out: Median ΔTm D (° C.)): 12.2 ± 0.7 °C | DSF (dTmD) ([4]; thermal melt shift of 0.5 μM CD33 protein with 50 μM compound): 12.9
SMILES: CC(=O)N[C@H]1[C@H]([C@H](O)[C@H](O)CNC(=O)c2cc(C)c(O)c(C)c2)O[C@@](CCN2CCOC[C@@]23CCN(C(=O)OC(C)(C)C)C3)(C(=O)O)C[C@@H]1O [A-001]
